This is an account of results in ChEMBL document CHEMBL4811227, “Biosynthesis of Nonimmunosuppressive ProlylFK506 Analogues with Neurite Outgrowth and Synaptogenic Activity” (J Nat Prod, 2021).

Molecules are shown by their SMILES. Calls of active or inactive are those of the source. The calls are words filed in the database; no cut-off is given here.

Assay [1] has as its system CD4+ve Th. Kind of assay: Immunosuppressive activity in C57BL/6J mouse CD4+ve T cells assessed as inhibition of CD3/CD28-stimulated CD4+ve T cell proliferation incubated for 72 hrs by CellTrace-violet staining based flow cytometry analysis. It is filed as functional. Background: Flow cytometry measures light scatter and fluorescence of single cells or particles in a stream.

The nature of assay [2]: Neurotrophic activity in ICR mouse primary hippocampal neuron assessed as increase in relative spontaneous excitatory postsynaptic current frequency at -70 mV holding potential at 1 ng/ml incubated for 10 to 14 days in presence of bicuculline methiodide. The conditions noted are these: time 10-14 day. It is filed as functional.
Assay [3] concerns CD4+ve Th. The assay can be described thus: Immunosuppressive activity in C57BL/6J mouse CD4+ve T cells assessed as inhibition of CD3/CD28-stimulated CD4+ve T cell proliferation by measuring fold reduction incubated for 72 hrs by CellTrace-violet staining based flow cytometry analysis relative to FK506. The class given is functional.
In assay [4] the test system is Primary hippocampal neuron. The assay can be described thus: Neurotrophic activity in ICR mouse primary hippocampal neuron assessed as induction of neurite outgrowth at 1 ng/ml measured after 48 hrs by photographic imaging analysis. The class given is functional, tissue-based.

As a reminder, the IC50 is the concentration that inhibits the measured activity by half. `C=CC[C@@H]1/C=C(\C)C[C@H](C)C[C@H](OC)[C@H]2O[C@@](O)(C(=O)C(=O)N3CCCC[C@H]3C(=O)O[C@H](/C(C)=C/[C@@H]3CC[C@@H](O)[C@H](OC)C3)[C@H](C)[C@@H](O)CC1=O)[C@H](C)C[C@@H]2OC` [TACROLIMUS ANHYDROUS]: the IC50 in assay [1] is 3.4e-05 µM. For the same molecule, the Activity in assay [2] is recorded as 2.61.
As to `CCC[C@@H]1/C=C(\C)C[C@H](C)C[C@H](OC)[C@H]2O[C@@](O)(CC(=O)N3CCC[C@H]3C(=O)O[C@H](/C(C)=C/[C@@H]3CC[C@@H](O)[C@H](O)C3)[C@H](C)[C@@H](O)CC1=O)[C@H](C)C[C@@H]2OC`, the IC50 in assay [1] is 7.27 µM. Further, the “fold change (FC)” value in assay [3] is listed as 220000. In addition, the outcome in assay [4] was Active. In assay [2], the Activity turned out to be 2.63.
The corresponding values for `CCC[C@@H]1/C=C(\C)C[C@H](C)C[C@H](OC)[C@H]2O[C@@](O)(C(=O)C(=O)N3CCC[C@H]3C(=O)O[C@H](/C(C)=C/[C@@H]3CC[C@@H](O)[C@H](OC)C3)[C@H](C)[C@@H](O)CC1=O)[C@H](C)C[C@@H]2OC` are 3.97 µM, 120000, “Active” and 3.29.
